Data as given in paper PMC9489211, “Regulation of pulmonary surfactant by the adhesion GPCR GPR116/ADGRF5 requires a tethered agonist-mediated activation mechanism” (eLife, 2022).
Where a SMILES comes first, the peptide text is derived from it. Where no end group is shown, it is not given here. [ ]: non-standard residue; d: D form. Nle = CCCC[C@H](N)C(=O)O

Key:
[1] = biological target: T1, full-length mGPR116 (HEK293 clone 3C) (Mus musculus, UniProt G5E8Q8); test: Calcium transient assay, full-length mGPR116 stably expressed in HEK293 (clone 3C); assay type: cell-based; conditions: calcium transient assay, HEK293 clone 3C, Fig 3F
T1 construct: expressed in transfected cells
T1 sequence (G5E8Q8 22-1348): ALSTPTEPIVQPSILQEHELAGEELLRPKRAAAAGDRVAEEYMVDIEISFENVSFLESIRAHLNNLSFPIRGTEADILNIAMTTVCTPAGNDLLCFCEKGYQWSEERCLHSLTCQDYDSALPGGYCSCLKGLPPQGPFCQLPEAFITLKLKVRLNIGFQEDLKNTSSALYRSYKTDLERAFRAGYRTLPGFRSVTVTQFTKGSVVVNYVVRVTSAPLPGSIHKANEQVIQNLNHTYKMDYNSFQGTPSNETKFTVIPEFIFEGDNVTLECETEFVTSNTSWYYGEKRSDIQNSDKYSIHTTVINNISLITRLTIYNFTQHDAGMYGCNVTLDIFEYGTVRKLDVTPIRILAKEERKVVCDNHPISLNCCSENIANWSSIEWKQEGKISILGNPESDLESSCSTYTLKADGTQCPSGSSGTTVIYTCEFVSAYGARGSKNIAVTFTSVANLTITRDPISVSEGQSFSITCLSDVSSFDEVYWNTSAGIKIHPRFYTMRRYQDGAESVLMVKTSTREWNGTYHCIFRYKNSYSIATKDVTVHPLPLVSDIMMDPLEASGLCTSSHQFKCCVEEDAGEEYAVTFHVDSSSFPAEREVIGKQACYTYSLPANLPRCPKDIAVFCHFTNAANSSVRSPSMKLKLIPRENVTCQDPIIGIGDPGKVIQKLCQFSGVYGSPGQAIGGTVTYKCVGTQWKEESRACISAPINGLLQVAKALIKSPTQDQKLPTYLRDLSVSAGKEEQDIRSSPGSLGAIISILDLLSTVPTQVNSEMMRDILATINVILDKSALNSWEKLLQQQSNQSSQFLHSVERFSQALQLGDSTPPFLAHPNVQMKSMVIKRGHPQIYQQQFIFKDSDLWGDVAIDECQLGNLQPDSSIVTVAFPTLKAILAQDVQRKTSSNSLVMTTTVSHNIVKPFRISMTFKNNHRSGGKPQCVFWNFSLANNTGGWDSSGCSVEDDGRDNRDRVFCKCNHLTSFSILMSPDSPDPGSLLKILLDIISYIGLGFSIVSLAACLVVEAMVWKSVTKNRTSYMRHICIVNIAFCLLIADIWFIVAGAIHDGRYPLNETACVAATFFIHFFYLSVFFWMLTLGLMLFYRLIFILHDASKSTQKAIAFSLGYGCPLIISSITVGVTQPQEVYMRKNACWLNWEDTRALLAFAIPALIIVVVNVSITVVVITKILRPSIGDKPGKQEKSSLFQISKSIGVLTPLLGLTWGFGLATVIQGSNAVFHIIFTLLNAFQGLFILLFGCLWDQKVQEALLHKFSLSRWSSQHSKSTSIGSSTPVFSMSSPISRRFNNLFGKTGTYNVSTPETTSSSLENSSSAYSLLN
Protocol: (§1) For some constructs, stable populations were generated by treating the cells with G418. After complete selection of resistant cells, these were used in assays. Stable HEK293 clones for full-length hGPR116 (clone A6) and mGPR116 (clone 3C) were described earlier ([Brown et al., 2017]).
(§2) HEK293 cells were seeded in 384-well plates (Greiner, #781946) at 30,000 cells/well. Medium was removed the following day and cells were loaded for 2 hr at 37°C, 5% CO2 with 20 µl Calcium 6 loading buffer (Molecular Devices, Cat# R8191): 1× HBSS (Gibco, Cat# 14065.049) containing 20 mM HEPES (Gibco, Cat#15630) and 2.5 mM probenecid (Sigma, Cat# P8761). Plates were then transferred to a FDSS7000 fluorescence plate reader (HAMAMATSU, Japan) and Ca^2+ responses were measured in real time using a CCD camera with excitation 480 nm/emission 540 nm. Prior to stimulation, baseline measurements were recorded over 5 s (Fmin). For stimulation, 20 µl of test compounds prepared 2× in HBSS containing 20 mM HEPES were dispensed. Fluorescence was read over 1–1.5 min. Maximum fluorescence (Fmax) was determined and normalized to baseline. Data are reported as ∆F/F = (Fmax – Fmin)/Fmin. Adequate response of the endogenous M3R was verified for each transfection, using carbachol at 100 µM and following the same procedure as for the peptide activation.
(§3) Concentration response curves were analyzed using GraphPad Prism 9.2.0. Potency was determined using a nonlinear regression model with variable slope, and statistical significance was determined using a one-way ANOVA followed by Dunnett’s multiple comparison test or a TTEST for comparison of two data sets (*p<0.05, **p<0.01, ***p<0.001, ****p<0.0001, ns, not significant).

[2] = test system: mCTFbax Y1158A, R1160A, W1165A, L1166A, T1240A; test: Calcium transient assay, alanine scan of ECLs in mCTFbax; assay type: cell-based, mouse; conditions: transiently transfected HEK293, Figure 4B
Protocol: Human and mouse GPR116 full-length constructs (hFL and mFL, respectively) have been described earlier, as well as the mouse CTF constructs (mCTF) with N-terminal mCherry or FLAG ([Brown et al., 2017]). […] Mutants of these constructs have been generated by site-directed mutagenesis using PCR-based techniques.
as §2

[3] = test system: mouse GPR116 CTF (mCTF) single alanine mutants; test: IP1 accumulation, mCTF single alanine mutants of the tethered agonist stimulated with exogenous GAP; assay type: cell-based; conditions: transiently transfected HEK293, Figure 3E
Protocol: HEK293 cells were seeded in 12-well plates at a density of 1.5 × 10^5 cells per well and transiently transfected with plasmids expressing wild-type, wild-type mGPR116-FLAG, CTF-FLAG, or alanine mutants of CTF-FLAG. Then, 24 hr post transfection, media were removed and replaced with serum-free Modified Eagles Medium (MEM; Mediatech) containing 1 µCi/ml of 3H-myo-inositol (PerkinElmer Life Sciences). Also, 48 hr […], media were removed and replaced with serum-free media supplemented with 20 mM LiCl for 3 hr. For samples to be stimulated with GAPs, the peptides were added at the appropriate concentration when the media were replaced with that supplemented with LiCl. […] Columns were washed twice with distilled H2O, total inositol phosphates (IP) were eluted with 4.0 ml of 0.1 M formic acid and 1 M ammonium formate, and eluates containing accumulated inositol phosphates were counted in a liquid scintillation counter. Then, 50 μl of neutralized supernatant was counted in a liquid scintillation counter to measure total incorporated 3H-myo-inositol. Data are expressed as accumulated inositol phosphate over total incorporated 3H-myo-inositol. […]
IP1 accumulation was measured using the manufacturer’s instructions (IP-One, Cisbio 62IPAPEC). […] Plates were read at 665 and 620 nm on an EnVision Xcite Multilabel reader (PerkinElmer, # 2104-0020). […]

[4] = biological target: T2, full-length hGPR116 (HEK293 clone A6) (Homo sapiens, UniProt Q8IZF2); test: Calcium transient assay, full-length hGPR116 stably expressed in HEK293 (clone A6); assay type: cell-based; conditions: calcium transients, hFL clone A6, Figure 3-figure supplement 2 / Figure 7A
T2 construct: expressed in transfected cells
T2 sequence (Q8IZF2 22-1346): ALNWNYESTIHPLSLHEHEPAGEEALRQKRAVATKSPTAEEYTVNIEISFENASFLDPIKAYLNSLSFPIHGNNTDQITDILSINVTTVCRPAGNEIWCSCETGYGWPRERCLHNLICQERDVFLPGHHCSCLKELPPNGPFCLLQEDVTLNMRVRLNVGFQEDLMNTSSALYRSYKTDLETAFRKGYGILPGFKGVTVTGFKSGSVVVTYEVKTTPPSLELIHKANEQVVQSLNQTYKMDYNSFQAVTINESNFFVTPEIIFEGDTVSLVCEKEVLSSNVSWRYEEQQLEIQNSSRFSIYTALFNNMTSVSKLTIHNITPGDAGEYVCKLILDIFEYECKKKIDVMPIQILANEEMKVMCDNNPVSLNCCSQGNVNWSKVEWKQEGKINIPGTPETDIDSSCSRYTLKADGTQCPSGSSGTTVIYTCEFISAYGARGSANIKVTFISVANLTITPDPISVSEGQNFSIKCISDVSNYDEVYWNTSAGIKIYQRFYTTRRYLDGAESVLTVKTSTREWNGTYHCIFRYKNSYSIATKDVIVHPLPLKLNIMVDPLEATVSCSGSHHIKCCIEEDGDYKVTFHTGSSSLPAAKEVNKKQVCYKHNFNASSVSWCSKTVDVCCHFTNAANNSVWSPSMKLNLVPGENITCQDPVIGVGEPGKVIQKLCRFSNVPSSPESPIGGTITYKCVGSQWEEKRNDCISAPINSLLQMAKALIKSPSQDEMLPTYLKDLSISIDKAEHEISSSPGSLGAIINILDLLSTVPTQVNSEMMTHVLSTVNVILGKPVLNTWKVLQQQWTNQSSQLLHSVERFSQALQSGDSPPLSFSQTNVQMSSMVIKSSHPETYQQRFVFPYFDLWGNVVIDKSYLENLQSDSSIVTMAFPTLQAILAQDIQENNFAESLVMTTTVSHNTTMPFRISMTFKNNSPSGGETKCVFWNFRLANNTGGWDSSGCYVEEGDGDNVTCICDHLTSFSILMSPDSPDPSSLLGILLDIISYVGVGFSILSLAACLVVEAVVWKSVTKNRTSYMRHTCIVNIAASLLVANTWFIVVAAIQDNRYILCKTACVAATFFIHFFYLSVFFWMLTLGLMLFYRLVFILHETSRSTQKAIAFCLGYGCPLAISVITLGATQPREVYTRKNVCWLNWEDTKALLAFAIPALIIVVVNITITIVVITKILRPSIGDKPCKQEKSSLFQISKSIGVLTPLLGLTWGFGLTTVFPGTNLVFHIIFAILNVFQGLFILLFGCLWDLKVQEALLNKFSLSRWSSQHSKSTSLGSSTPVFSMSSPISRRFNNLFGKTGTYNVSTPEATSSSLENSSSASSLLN
Protocol: as §1, §2, §3

hCTFbax G1011K = biological target: T3, hCTFbax G1011K (Homo sapiens, UniProt Q8IZF2, G1009K); test: Calcium transient assay, hCTFbax G1011K; assay type: cell-based; conditions: calcium transients, Figure 7C
T3 construct: tethered peptide (993 - 1008); expressed in transfected cells
T3 sequence (Q8IZF2 997-1346 G1009K): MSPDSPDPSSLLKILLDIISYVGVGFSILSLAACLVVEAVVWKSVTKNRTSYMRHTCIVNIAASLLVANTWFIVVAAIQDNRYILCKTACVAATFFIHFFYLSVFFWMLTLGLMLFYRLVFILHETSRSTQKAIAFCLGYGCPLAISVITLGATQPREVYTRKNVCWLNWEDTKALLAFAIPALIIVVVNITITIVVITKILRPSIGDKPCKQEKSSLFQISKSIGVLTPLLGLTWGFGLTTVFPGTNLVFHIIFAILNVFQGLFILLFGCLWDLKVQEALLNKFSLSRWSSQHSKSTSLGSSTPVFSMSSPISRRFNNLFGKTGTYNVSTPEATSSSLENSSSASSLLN
Protocol: The hCTFbax construct was generated independently of the mCTFbax, using a strategy (Nt deletion) based on emerging knowledge and appropriate for the planned studies, although no difference in functionality is expected between the two approaches. The hCTFbax mBS chimera was derived from this construct by gene synthesis. Other mutants of the human GPR116 CTF or full-length constructs were generated by site-directed mutagenesis using PCR-based techniques.
HEK293 cells were seeded in 384-well plates (Greiner, #781946) at 30,000 cells/well. […] Plates were then transferred to a FDSS7000 fluorescence plate reader (HAMAMATSU, Japan) and Ca^2+ responses were measured in real time using a CCD camera with excitation 480 nm/emission 540 nm. Prior to stimulation, baseline measurements were recorded over 5 s (Fmin). […] Fluorescence was read over 1–1.5 min. Maximum fluorescence (Fmax) was determined and normalized to baseline. […]
as §3

Molecule | EC50 (uM) n=1 ([1]; independent experiment n=1 (mean of quadruplicate)) [µM] | EC50 (uM) n=2 ([1]; independent experiment n=2 (mean of quadruplicate)) [µM] | EC50 (uM) n=3 ([1]; independent experiment n=3 (mean of quadruplicate)) [µM] | activation of mCTFbax ECL alanine mutants (in words) [2] | activation of mCTF single alanine mutants, IP1 accumulation (in words) [3] | activation of the human full-length receptor (in words) [4] | response of hCTFbax G1011K (in words) (hCTFbax G1011K)
TSFSILMSPDSPDP [GAP14] | 29.9 | 26.3 | 46.4 | unresponsive to GAP14-mediated activation | strongly activated the mutant receptors |  | 
CCCC[C@H](NC(=O)[C@H](CC(C)C)NC(=O)[C@@H](NC(=O)[C@H](CO)NC(=O)[C@H](Cc1ccccc1)NC(=O)[C@H](CO)NC(=O)[C@@H]1CCCN1)[C@@H](C)CC)C(=O)N[C@@H](CO)C(=O)N1CCC[C@H]1C(=O)N[C@@H](CC(=O)O)C(=O)O [GAP10-Pro1] (H-PSFSIL[Nle]SPD-OH; N-terminus and C-terminus assumed) |  |  |  |  |  | little to no effect | did not robustly respond
